Assay [1] has as its system Escherichia coli (E. coli, ATCC25922). The class given is cell-based. On the procedure:
(§1) Escherichia coli ( E. coli , ATCC25922), Klebsiella pneumoniae ( K. pneumoniae , ATCC10031), Staphylococcus aureus ( S. aureus , ATCC6538P), Pseudomonas aeruginosa ( P. aeruginosa , ATCC27853) and methicillin‐resistant Staphylococcus aureus (MRSA) were used to evaluate the antimicrobial activity of the peptides and were purchased from BeNa Culture Collection.
(§2) The MICs of the peptides in vitro were determined using the broth microdilution method with minor modifications (Wiegand et al. [2008]). Peptides were incubated with bacteria (about 5 × 10^5 CFU/mL), and PBS was used as the negative control. After 18–24 h of incubation at 37°C, the bacteria were checked for growth by recording the values at OD600, with three replicates in each group.

Assay [2] concerns Klebsiella pneumoniae (K. pneumoniae, ATCC10031). The class given is cell-based. The note with it: for MIC K. pneumoniae: ATCC10031; for increase of antimicrobial activity against K. pneumoniae: stapled peptide compared to its linear peptide. How it is done: as §1, §2
Assay [3] has as its system Pseudomonas aeruginosa (P. aeruginosa, ATCC27853). The class given is cell-based. On the procedure: as §1, §2
In assay [4] the test system is Staphylococcus aureus (S. aureus, ATCC6538P). The format is cell-based. The note with it: for MIC S. aureus: ATCC6538; for increase of antimicrobial activity against S. aureus: stapled peptide compared to its linear peptide. On the procedure: as §1, §2
Assay [5] has as its system methicillin‐resistant Staphylococcus aureus (MRSA). The format is cell-based. The note with it: for MIC MRSA: methicillin‐resistant; for increase of antibacterial activity against MRSA: stapled peptide compared to its linear peptide. On the procedure:
as §1, §2

The subject of assay [6] is any bacteria. Description: Wet experiment result (antimicrobial activity of the synthesised peptides, positive/negative). The class given is cell-based. Conditions: experiment data set (Supplement S12). The source says:
Supplement MBT2-18-e70121-s002.doc, table 9 | column: Wet Exp. Result

In assay [7] the test system is gram‐positive and gram‐negative bacteria. Conditions: external independent data set; ref Hu et al. ([2022]); cited from earlier work. The source says:
TABLE 3 Prediction results of external independent data set using 10 models. | column: Result ^a

≈ marks a conversion by molar mass, not a printed value. *1 amine or outer side, *2 acyl side, *3 side chain or, on linkers, in order; H or OH if unused. Where a SMILES comes first, the peptide text is derived from it. Bridges are numbered along the chain shown (N, C = ends). Where no end group is shown, it is not given here. [ ]: non-standard residue; d: D form. X1 = O=C([C@H](CCCCNCC=[*:3])N[*:1])[*:2]

We go through 19 molecules from PMC11881016, “Deep‐Learning‐Based Approaches for Rational Design of Stapled Peptides With High Antimicrobial Activity and Stability” (Microbial Biotechnology, 2025).

For `CC[C@H](C)[C@H](NC(=O)[C@@H](N)CCCNC(=N)N)C(=O)N[C@@H](CC(C)C)C(=O)N[C@@H](CCCNC(=N)N)C(=O)N[C@@H](CCCCN)C(=O)N[C@@H](CC(C)C)C(=O)N[C@@H](CCCNC(=N)N)C(=O)N[C@H]1CCCCNC/C=C/CNCCCC[C@@H](C(=O)O)NC(=O)[C@H](CC(C)C)NC(=O)[C@H](Cc2ccccc2)NC(=O)[C@H](CCCCN)NC1=O` [GAN‐P2‐2‐St] (H-RILRKLR[X1]KFL[X1]-OH; staple (E) 8-12), the “MIC E. coli” value in assay [1] was 16 µg/mL (≈ 9.69 µM). Moreover, in assay [2], the “MIC K. pneumoniae” value amounted to 1 µg/mL (≈ 0.606 µM) and the “increase of antimicrobial activity against K. pneumoniae” value (shortened to “increase … against K. pneumoniae”) is 2–4 fold. In addition, the “MIC P. aeruginosa” value in assay [3] turned out to be 32 µg/mL (≈ 19.4 µM). In assay [4], the “MIC S. aureus” value came to 2 µg/mL (≈ 1.21 µM) and the “increase of antimicrobial activity against S. aureus” value was 4 fold. Also, in assay [5], the “MIC MRSA” value came out at 8 µg/mL (≈ 4.85 µM) and the “increase of antibacterial activity against MRSA” value (from here on “increase … against MRSA”) came to 16 fold. Further, the “Wet Exp. Result” value in assay [6] is “Positive”.

`CC[C@H](C)[C@H](NC(=O)[C@@H](N)CCCNC(=N)N)C(=O)N[C@@H](CC(C)C)C(=O)N[C@@H](CCCNC(=N)N)C(=O)N[C@@H](CCCCN)C(=O)N[C@@H](CC(C)C)C(=O)N[C@@H](CCCCN)C(=O)N[C@H]1CCCCNC/C=C/CNCCCC[C@@H](C(=O)O)NC(=O)[C@H](CC(C)C)NC(=O)[C@H](Cc2ccccc2)NC(=O)[C@H](CCCNC(=N)N)NC1=O` [GAN‐P2‐3‐St] (H-RILRKLK[X1]RFL[X1]-OH; staple (E) 8-12): the “MIC E. coli” value in assay [1] was found to be 16 µg/mL (≈ 9.69 µM). Further, in assay [2], the “MIC K. pneumoniae” value is 1 µg/mL (≈ 0.606 µM) and the “increase … against K. pneumoniae” value is listed as 2–4 fold. Further, the “MIC P. aeruginosa” value in assay [3] was 32 µg/mL (≈ 19.4 µM). Besides, in assay [4], the “MIC S. aureus” value stood at 2 µg/mL (≈ 1.21 µM) and the “increase of antimicrobial activity against S. aureus” value turned out to be 4 fold. In addition, in assay [5], the “MIC MRSA” value turned out to be 8 µg/mL (≈ 4.85 µM) and the “increase … against MRSA” value turned out to be 16 fold. Also, in assay [6], the “Wet Exp. Result” value is given as “Positive”.

For the molecule `CC[C@H](C)[C@H](NC(=O)[C@@H](N)CCCNC(=N)N)C(=O)N[C@@H](CC(C)C)C(=O)N[C@@H](CCCNC(=N)N)C(=O)N[C@@H](CCCCN)C(=O)N[C@@H](CC(C)C)C(=O)N[C@@H](CCCNC(=N)N)C(=O)N[C@H]1CCCCNC/C=C/CNCCCC[C@@H](C(=O)O)NC(=O)[C@H](CC(C)C)NC(=O)[C@H](Cc2ccccc2)NC(=O)[C@H](CCCNC(=N)N)NC1=O` [GAN‐P2‐4‐St] (H-RILRKLR[X1]RFL[X1]-OH; staple (E) 8-12), the “MIC E. coli” value in assay [1] came to 16 µg/mL (≈ 9.53 µM). For the same molecule, in assay [2], the “MIC K. pneumoniae” value amounted to 2 µg/mL (≈ 1.19 µM) and the “increase … against K. pneumoniae” value is listed as 2–4 fold. In addition, the “MIC P. aeruginosa” value in assay [3] worked out at 16 µg/mL (≈ 9.53 µM). In addition, the “MIC S. aureus” value in assay [4] came out at 4 µg/mL (≈ 2.38 µM). In addition, in assay [5], the “MIC MRSA” value was 16 µg/mL (≈ 9.53 µM) and the “increase … against MRSA” value came out at 4 fold. Further, the “Wet Exp. Result” value in assay [6] is listed as “Positive”.

`CC[C@H](C)[C@H](NC(=O)CN)C(=O)NCC(=O)N[C@@H](CCCCN)C(=O)N[C@@H](Cc1ccccc1)C(=O)N[C@@H](CC(C)C)C(=O)N[C@@H](Cc1c[nH]cn1)C(=O)N[C@@H](CO)C(=O)N[C@@H](C)C(=O)N[C@@H](CCCCN)C(=O)N[C@@H](CCCCN)C(=O)N[C@@H](Cc1ccccc1)C(=O)NCC(=O)N[C@@H](CCCCN)C(=O)N[C@H]1CSSC[C@@H](C(=O)N[C@H](C(=O)N[C@@H](CC(C)C)C(=O)N[C@@H](CC(N)=O)C(=O)N[C@@H](CO)C(=O)O)[C@@H](C)CC)NC(=O)CNC(=O)[C@H](C(C)C)NC(=O)[C@H](Cc2ccccc2)NC1=O` [Mag2(i + 4)14Dc] (H-GIGKFLHSAKKFGKCFVGCILNS-OH; disulfide 15-19): the “MIC E. coli” value in assay [1] was 64 µg/mL. Moreover, the “MIC K. pneumoniae” value in assay [2] worked out at 32 µg/mL. In addition, the “MIC P. aeruginosa” value in assay [3] came out at 64 µg/mL. In addition, the “MIC S. aureus” value in assay [4] is 16 µg/mL.

On to `CC[C@H](C)[C@H](NC(=O)CN)C(=O)NCC(=O)N[C@@H](CCCCN)C(=O)N[C@@H](Cc1ccccc1)C(=O)N[C@@H](CC(C)C)C(=O)N[C@@H](Cc1c[nH]cn1)C(=O)N[C@@H](CO)C(=O)N[C@@H](C)C(=O)N[C@@H](CCCCN)C(=O)N[C@@H](CCCCN)C(=O)N[C@@H](Cc1ccccc1)C(=O)NCC(=O)N[C@@H](CCCCN)C(=O)N[C@@H](C)C(=O)N[C@H]1CSSC[C@@H](C(=O)N[C@@H](CC(C)C)C(=O)N[C@@H](CC(N)=O)C(=O)N[C@@H](CO)C(=O)O)NC(=O)[C@H](CCC(=O)O)NC(=O)CNC(=O)[C@H](C(C)C)NC1=O` [Mag2(i + 4)15Dc] (H-GIGKFLHSAKKFGKACVGECLNS-OH; disulfide 16-20), for which the “MIC E. coli” value in assay [1] was 512 µg/mL. The “MIC K. pneumoniae” value in assay [2] worked out at 256 µg/mL. In addition, the “MIC P. aeruginosa” value in assay [3] is > 512 µg/mL. The “MIC S. aureus” value in assay [4] is > 512 µg/mL.

As to “FFGKVLⓀLIRⓀIF‐NH2 (sidechain bridge or staple) [LS‐DAS, lysine‐stapled AMP of the external independent data set from Hu et al. ([2022])]”, the “Result (stapled AMP with high antimicrobial activity in the experiment)” value in assay [7] is listed as “Positive”.

Take “FFGSVLⓀLIPⓀIL‐NH2 (sidechain bridge or staple) [LS‐PTa, lysine‐stapled AMP of the external independent data set from Hu et al. ([2022])]”: the “Result (stapled AMP with high antimicrobial activity in the experiment)” value in assay [7] is given as “Positive”.

Turning to “GFKDLLKGAAⓀALVⓀTVLF‐NH2 (sidechain bridge or staple) [LS‐AP1, lysine‐stapled AMP of the external independent data set from Hu et al. ([2022])]”, in assay [7], the “Result (stapled AMP with high antimicrobial activity in the experiment)” value is reported as “Positive”.

Turning to “GFKDLLⓀGAAⓀALVKTVLF‐NH2 (sidechain bridge or staple) [LS‐AP2, lysine‐stapled AMP of the external independent data set from Hu et al. ([2022])]”, the “Result (stapled AMP with high antimicrobial activity in the experiment)” value in assay [7] is on record as “Positive”.

In the case of “GFⓀDLLⓀGAAKALVKTVLF‐NH2 (sidechain bridge or staple) [LS‐AP3, lysine‐stapled AMP of the external independent data set from Hu et al. ([2022])]”, the “Result (stapled AMP with high antimicrobial activity in the experiment)” value in assay [7] is given as “Positive”.

For “PKINLⓀILGⓀILRLAAAFK‐NH2 (sidechain bridge or staple) [LS‐PaD1, lysine‐stapled AMP of the external independent data set from Hu et al. ([2022])]”, in assay [7], the “Result (stapled AMP with high antimicrobial activity in the experiment)” value is “Positive”.

As for “PⓀINLⓀILGKILRLAAAFK‐NH2 (sidechain bridge or staple) [LS‐PaD2, lysine‐stapled AMP of the external independent data set from Hu et al. ([2022])]”, the “Result (stapled AMP with high antimicrobial activity in the experiment)” value in assay [7] is “Positive”.

Turning to RILRKLKKRFLK [GAN‐P2‐3], the “MIC E. coli” value in assay [1] worked out at 16 µg/mL. The “MIC K. pneumoniae” value in assay [2] stood at 4 µg/mL. The “MIC P. aeruginosa” value in assay [3] was found to be 32 µg/mL. In addition, the “MIC S. aureus” value in assay [4] was 8 µg/mL. Besides, the “MIC MRSA” value in assay [5] is 128 µg/mL.

In the case of RILRKLRKKFLK [GAN‐P2‐2], in assay [1], the “MIC E. coli” value was found to be 8 µg/mL. Further, the “MIC K. pneumoniae” value in assay [2] worked out at 4 µg/mL. The “MIC P. aeruginosa” value in assay [3] was determined as 16 µg/mL. In assay [4], the “MIC S. aureus” value came out at 8 µg/mL. Moreover, the “MIC MRSA” value in assay [5] stood at 128 µg/mL.

RILRKLRKRFLK [GAN‐P2‐4]: in assay [1], the “MIC E. coli” value was 8 µg/mL. Besides, the “MIC K. pneumoniae” value in assay [2] was 4 µg/mL. Also, in assay [3], the “MIC P. aeruginosa” value worked out at 32 µg/mL. Further, in assay [4], the “MIC S. aureus” value came to 8 µg/mL. Besides, the “MIC MRSA” value in assay [5] was 64 µg/mL.

Consider “VKRFKⓀFFRⓀFKKFV‐NH2 (sidechain bridge or staple) [LS‐BF1, lysine‐stapled AMP of the external independent data set from Hu et al. ([2022])]”, for which, in assay [7], the “Result (stapled AMP with high antimicrobial activity in the experiment)” value is reported as “Positive”.

Take “VⓀRFKⓀFFRKFKKFV‐NH2 (sidechain bridge or staple) [LS‐BF2, lysine‐stapled AMP of the external independent data set from Hu et al. ([2022])]”: in assay [7], the “Result (stapled AMP with high antimicrobial activity in the experiment)” value was “Positive”.

Take WKRIAKRLKKKLGRAKLF [VAE‐P3‐3]: in assay [1], the “MIC E. coli” value was determined as 16 µg/mL. Moreover, the “MIC K. pneumoniae” value in assay [2] was determined as 2 µg/mL. For the same molecule, the “MIC P. aeruginosa” value in assay [3] was found to be 16 µg/mL. Also, in assay [4], the “MIC S. aureus” value was 4 µg/mL. The “MIC MRSA” value in assay [5] came to 16 µg/mL.

As for WKRIARKLKRKLGRAKLF [VAE‐P3‐5], the “MIC E. coli” value in assay [1] was found to be 16 µg/mL. Besides, in assay [2], the “MIC K. pneumoniae” value turned out to be 1 µg/mL. Also, in assay [3], the “MIC P. aeruginosa” value was 4 µg/mL. The “MIC S. aureus” value in assay [4] was found to be 2 µg/mL. For the same molecule, the “MIC MRSA” value in assay [5] is 8 µg/mL.
